{"source": "patent US10472315B2", "about": "“Inhibitors of methionine aminopeptidases and methods of treating disorders” (THE JOHNS HOPKINS UNIVERSITY, priority 2009, dated 2019)", "system": "M. tuberculosis CDC1551 wild-type, control and MtMetAP1a/MtMetAP1c knock-in strains", "format": "cell-based"}
{"molecule": "O=C1C(Cl)=C(Cl)C(=O)c2ccccc21", "note": "[Compound 4, 2,3-dichloro-1,4-naphthoquinone]", "values": [{"measurement": "growth of MtMetAP1a and MtMetAP1c knock-in strains", "value": "gained resistance"}, {"measurement": "growth of wild-type and control M. tuberculosis strains", "value": "inhibited"}]}
